Laboratory results as given in the supplement of paper PMC12137928.
Where a name gives a salt, the structure may show the parent alone.

System: HCT116
Settings: 72 h
In short: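 HCT116 cells were seeded at 250 per well in 1536-well plates and left 5 h to attach. CellTiter-Glo luminescence was scaled to vehicle (0%) and positive control (-100%), then pattern-corrected. IC50 and maximal efficacy came from four-parameter Hill fits.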

Row | Compound | IC50 cell viability (ICRF193 0 nM) [µM] | IC50 cell viability (ICRF193 200 nM) [µM]
1 | OC[C@@H](O)[C@@H](O[C@@H]1O[C@H](CO)[C@H](O)[C@H](O)[C@H]1O)[C@H](O)[C@@H](O)CO [Lactitol] | > 45.8 | > 45.8
2 | O=C(C[S+]([O-])Cc1ccco1)NC/C=C\COc1cc(CN2CCCCC2)ccn1 (stereo not given) [Lafutidine] | > 45.8 | > 45.8
3 | Nc1ccn([C@@H]2CS[C@H](CO)O2)c(=O)n1 [Lamivudine] | > 45.8 | > 45.8
4 | Nc1nnc(-c2cccc(Cl)c2Cl)c(N)n1 [Lamotrigine] | > 45.8 | > 45.8
5 | CC1(C)OC[C@@H](COC(=O)CCc2ccc(OC[C@@H](O)CNCCNC(=O)N3CCOCC3)cc2)O1 [Landiolol hydrochloride] | > 45.8 | > 45.8
6 | N#C/C(=C1/SCC(c2ccccc2Cl)S1)n1ccnc1 (stereo not given) [Lanoconazole] | > 45.8 | > 45.8
7 | C[C@H](CN1CCCC1)C(=O)c1ccc(C(F)(F)F)cc1 [Lanperisone hydrochloride] | > 45.8 | > 45.8
8 | CCN(C(=O)c1c(O)c2c(Cl)cccc2n(C)c1=O)c1ccccc1 [Laquinimod] | > 45.8 | > 45.8
9 | CC(C)OC(=O)CCC/C=C\C[C@@H]1[C@@H](CC[C@@H](O)CCc2ccccc2)[C@H](O)C[C@@H]1O [Latanoprost] | > 45.8 | > 45.8
10 | CCCCCCCCCCCCSCCOCCOCCOCCOCCOCCOCCOCCOCCOCCO [Laureth 10s] | > 45.8 | > 45.8
11 | NCCNC(=O)c1ccc(Cl)cn1 [Lazabemide hydrochloride] | > 45.8 | > 45.8
12 | COC(=O)N[C@H](C(=O)N1CC2(CC2)C[C@H]1c1nc(-c2ccc3c(c2)C(F)(F)c2cc(-c4ccc5[nH]c([C@@H]6[C@H]7CC[C@H](C7)N6C(=O)[C@@H](NC(=O)OC)C(C)C)nc5c4)ccc2-3)c[nH]1)C(C)C [Ledipasvir (GS 5885)] | > 45.8 | > 45.8
13 | Nc1cccc2c1CN(C1CCC(=O)NC1=O)C2=O (stereo not given) [Lenalidomide] | > 45.8 | > 45.8
14 | Cc1oc(=O)oc1COC(=O)[C@@H]1N2C(=O)[C@@H](NC(=O)[C@H](N)c3ccccc3)[C@H]2SC1(C)C [Lenampicillin hydrochloride] | > 45.8 | > 45.8
15 | O=C(CCCN1CCC(C(=O)c2ccc(F)cc2)CC1)c1ccc(F)cc1 [Lenperone Hydrochloride] | > 45.8 | > 45.8
16 | COc1cc2nccc(Oc3ccc(NC(=O)NC4CC4)c(Cl)c3)c2cc1C(N)=O [Lenvatinib] | > 45.8 | > 45.8
17 | O=C(O)CSc1nnc(Br)n1-c1ccc(C2CC2)c2ccccc12 [Lesinurad (sodium)] | > 45.8 | > 45.8
18 | COc1cccc(N2CCN(C3=Nc4c(F)cccc4[C@H](CC(=O)O)N3c3cc(C(F)(F)F)ccc3OC)CC2)c1 [Letermovir] | > 45.8 | > 45.8
19 | N#Cc1ccc(C(c2ccc(C#N)cc2)n2cncn2)cc1 [Letrozole] | > 45.8 | > 45.8
20 | c1ccc([C@H]2CN3CCSC3=N2)cc1 [Levamisole hydrochloride] | > 45.8 | > 45.8

Row | Compound | IC50 cell viability (ICRF193 0 nM) [µM] | IC50 cell viability (ICRF193 200 nM) [µM]
21 | CC[C@@H](C(N)=O)N1CCCC1=O [Levetiracetam] | > 45.8 | > 45.8
22 | CC(C)(C)NC[C@H](O)COc1cccc2c1CCCC2=O [Levobunolol hydrochloride] | > 45.8 | > 45.8
23 | CCCCN1CCCC[C@H]1C(=O)Nc1c(C)cccc1C [Levobupivacaine hydrochloride] | > 45.8 | > 45.8
24 | C[C@@H]1CN([C@H]2CC[C@](C#N)(c3ccc(F)cc3)CC2)CC[C@]1(C(=O)O)c1ccccc1 [Levocabastine hydrochloride] | > 45.8 | > 45.8
25 | N[C@@H](Cc1ccc(O)c(O)c1)C(=O)O [Levodopa] | > 45.8 | > 45.8
26 | C[C@H]1COc2c(N3CCN(C)CC3)c(F)cc3c(=O)c(C(=O)O)cn1c23 [Levofloxacin] | > 45.8 | > 45.8
27 | CN1c2c([nH]c(N)nc2=O)NC[C@@H]1CNc1ccc(C(=O)N[C@@H](CCC(=O)O)C(=O)O)cc1 [Levomefolate calcium] | > 45.8 | > 45.8
28 | C[C@H](N)[C@H](O)c1ccc(O)c(O)c1 [Levonordefrin] | > 45.8 | > 45.8
29 | CCC(=O)O[C@@](Cc1ccccc1)(c1ccccc1)[C@@H](C)CN(C)C [Levopropoxyphene napsylate] | > 45.8 | > 45.8
30 | CCN1CCC[C@H]1CNC(=O)c1cc(S(N)(=O)=O)ccc1OC [Levosulpiride] | > 45.8 | > 45.8
31 | CNC(=O)c1cnn(-c2nc(N)c3ncn([C@@H]4O[C@H](CO)[C@@H](O)[C@H]4O)c3n2)c1 [Lexiscan] | > 45.8 | > 45.8
32 | Clc1cccc(C(c2ccc3[nH]cnc3c2)n2ccnc2)c1 (stereo not given) [Liarozole] | > 45.8 | > 45.8
33 | CCN(CC)CC(=O)Nc1c(C)cccc1C [Lidocaine] | > 45.8 | > 45.8
34 | CC1(C)O[C@H]2CC(=O)OC[C@]23[C@H]2CC[C@@]4(C)[C@H](c5ccoc5)OC(=O)[C@H]5O[C@]54[C@]2(C)C(=O)C[C@@H]13 [Limoni] | > 45.8 | > 45.8
35 | CC#CCn1c(N2CCC[C@@H](N)C2)nc2c1c(=O)n(Cc1nc(C)c3ccccc3n1)c(=O)n2C [Linagliptin] | > 45.8 | > 45.8
36 | CCC[C@@H]1C[C@@H](C(=O)N[C@@H]([C@H]2O[C@H](SC)[C@H](O)[C@@H](O)[C@H]2O)[C@@H](C)O)N(C)C1 [Lincomycin hydrochloride] | > 45.8 | > 45.8
37 | CC(=O)NC[C@H]1CN(c2ccc(N3CCOCC3)c(F)c2)C(=O)O1 [Linezolid] | > 45.8 | > 45.8
38 | CC/C=C\C/C=C\C/C=C\CCCCCCCC(=O)O [Linolenic acid] | > 45.8 | > 45.8
39 | N[C@@H](Cc1cc(I)c(Oc2ccc(O)c(I)c2)c(I)c1)C(=O)O [Liothyronine Sodium] | > 45.8 | > 45.8
40 | COc1cccc(N(C)C(=S)Oc2ccc3c(c2)CCCC3)n1 [Liranaftate] | > 45.8 | > 45.8

Row | Compound | IC50 cell viability (ICRF193 0 nM) [µM] | IC50 cell viability (ICRF193 200 nM) [µM]
41 | NCCCC[C@H](N[C@@H](CCc1ccccc1)C(=O)O)C(=O)N1CCC[C@H]1C(=O)O [Lisinopril dihydrate] | > 45.8 | > 45.8
42 | O=C(O)c1ccccc1Nc1cc(Cl)ccc1C(=O)O [Lobenzarit sodium] | > 45.8 | > 45.8
43 | N#Cc1cc(NC(=O)C(=O)O)c(Cl)c(NC(=O)C(=O)O)c1 [Lodoxamide] | > 45.8 | > 45.8
44 | CN(CCCN1c2ccccc2CCc2ccccc21)CC(=O)c1ccc(Cl)cc1 [Lofepramine hydrochloride] | > 45.8 | > 45.8
45 | CC(Oc1c(Cl)cccc1Cl)C1=NCCN1 (stereo not given) [Lofexidine] | > 45.8 | > 45.8
46 | CCn1cc(C(=O)O)c(=O)c2cc(F)c(N3CCNC(C)C3)c(F)c21 (stereo not given) [Lomefloxacin hydrochloride] | > 45.8 | > 45.8
47 | O=NN(CCCl)C(=O)NC1CCCCC1 [Lomustine] | > 45.8 | > 45.8
48 | N[C@@H](C(=O)N[C@@H]1C(=O)N2C(C(=O)O)=C(Cl)CC[C@H]12)c1ccccc1 [Loracarbef] | > 45.8 | > 45.8
49 | CN1C(C(=O)Nc2ccccn2)=C(O)c2sc(Cl)cc2S1(=O)=O [Lornoxicam] | > 45.8 | > 45.8
50 | CCCCc1nc(Cl)c(CO)n1Cc1ccc(-c2ccccc2-c2nnn[nH]2)cc1 [Losartan] | > 45.8 | > 45.8
51 | CCOC(=O)O[C@]1(C(=O)OCCl)CC[C@H]2[C@@H]3CCC4=CC(=O)C=C[C@]4(C)[C@H]3[C@@H](O)C[C@@]21C [Loteprednol etabonate] | > 45.8 | > 45.8
52 | CN1CCN(C2=Nc3ccccc3Oc3ccc(Cl)cc32)CC1 [Loxapine succinate] | > 45.8 | > 45.8
53 | CCCCCN(CCCOC)C(=O)C(CCC(=O)O)NC(=O)c1ccc(Cl)c(Cl)c1 (stereo not given) [Loxiglumide] | > 45.8 | > 45.8
54 | CC(C(=O)O)c1ccc(CC2CCCC2=O)cc1 (stereo not given) [Loxoprofen] | > 45.8 | > 45.8
55 | CCCCC(F)(F)[C@@]1(O)CC[C@H]2[C@@H](CC(=O)[C@@H]2CCCCCCC(=O)O)O1 [Lubiprostone] | > 45.8 | > 45.8
56 | Cc1ccc(NC(=O)C2(c3ccc4c(c3)OC(F)(F)O4)CC2)nc1-c1cccc(C(=O)O)c1 [Lumacaftor] | > 45.8 | > 45.8
57 | Cc1ccc(Nc2c(F)cccc2Cl)c(CC(=O)O)c1 [Lumiracoxib] | > 45.8 | > 45.8
58 | CCCCCCO[C@@H](C)c1cccc(-c2csc(NC(=O)c3cc(Cl)c(/C=C(\C)C(=O)O)c(Cl)c3)n2)c1OC [Lusutrombopag] | > 45.8 | > 45.8
59 | CC(C)=CCC/C(C)=C/C=C/C(C)=C/C=C/C(C)=C/C=C/C=C(C)/C=C/C=C(C)/C=C/C=C(\C)CCC=C(C)C [Lycopene] | > 45.8 | > 45.8
60 | CN(C)[C@@H]1C(O)=C(C(=O)NCNCCCC[C@H](N)C(=O)O)C(=O)[C@@]2(O)C(O)=C3C(=O)c4c(O)cccc4[C@@](C)(O)[C@H]3C[C@@H]12 [Lymecycline] | > 45.8 | > 45.8
